Results as given in ChEMBL document CHEMBL1151998, “Combretatroponeshybrids of combretastatin and colchicine. Synthesis and biochemical evaluation” (Bioorg Med Chem Lett, 1993).

What follows are compounds tested against Tubulin beta chain (Bos taurus, UniProt Q6B856) (assay: Compound was evaluated for in vitro inhibitory activity against polymerization of tubulin into microtubules isolated from bovine brain at 1 mg/mL tubulin concentration).
Sequence of Tubulin beta chain (Q6B856 whole entry): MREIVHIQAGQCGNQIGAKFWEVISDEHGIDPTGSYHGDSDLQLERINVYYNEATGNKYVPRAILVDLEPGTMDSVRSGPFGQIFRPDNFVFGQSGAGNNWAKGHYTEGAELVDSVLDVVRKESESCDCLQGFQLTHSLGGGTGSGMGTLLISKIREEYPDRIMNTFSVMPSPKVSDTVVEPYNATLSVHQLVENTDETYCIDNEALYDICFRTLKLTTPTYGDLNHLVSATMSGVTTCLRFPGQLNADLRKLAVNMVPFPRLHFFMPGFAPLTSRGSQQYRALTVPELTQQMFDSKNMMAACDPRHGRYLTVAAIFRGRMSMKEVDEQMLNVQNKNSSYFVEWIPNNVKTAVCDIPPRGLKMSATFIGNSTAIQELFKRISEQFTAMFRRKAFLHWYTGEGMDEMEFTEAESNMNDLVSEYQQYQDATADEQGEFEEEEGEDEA
Type: tissue-based
With COc1cc(CCc2cccc(SC)c(=O)c2)cc(OC)c1OC the IC50 was 12 µM.
COc1cc(CCc2cccc(OC)c(=O)c2)cc(OC)c1OC gave an IC50 of 8.6 µM.
Compound COc1ccc(-c2ccc(OC)c(=O)cc2)c(OC)c1OC has an IC50 of 2.5 µM.
